From US5516889A, “Synthetic thrombin receptor peptides” (University Technologies International, Inc., priority 1995, dated 1996)
Read-outs that look alike come from different tables or passages of the source. Residues, ends and D or L forms follow the SMILES beside them. *: point of attachment. Propionyl = CCC(=O)*

Assays:
[1] = system: thrombin receptor (rat thoracic aorta rings, intact endothelium); conditions: for Agonist (relaxation) activity: precontracted with 0.1 μM noradrenaline
Protocol: Thoracic RA rings (2 mm×3 mm), obtained from male albino Sprague Dawley rats, were equilibrated (about 1 h, 37° ) in the same organ bath buffer as was used for the LM tissue, and tension (baseline 1.0 g) was monitored isometrically using either Statham or Grass force-displacement transducers. The presence of an intact endothelium was ascertained by monitoring a relaxation response to acetylcholine (ACh, 1 μM) in a preparation that was submaximally (EC75) contracted by 0.1 μM noradrenaline (NA) in the presence of 0.1 mM ascorbic acid (to preserve the catecholamine). Only tissues yielding a relaxation concentration-response curve between 0.01 and 10 μM acetylcholine (maximal relaxation of 70 to 90%, relative to the tension developed by 0.1 μM NA) were used for the further evaluation of the receptor-derived peptides. The assay of TRP responsiveness was done (e.g. see FIG. 1) on tissues that were precontacted with 0.1 μM NA at 30 min time intervals. Tissues were washed approx. 5 min after the application of TRPs. […] For purposes of comparison, the same stock solutions of an individual peptide were evaluated, relative to P5, in both the RA and LM bioassays. When possible, both assays were done simultaneously on the same day.
Weighed peptide samples were routinely dissolved in 50 mM phosphate buffer, pH 7.4, to yield stock solutions, from which volumes of up to 0.2 mL were added directly to the organ bath; the concentrations of all stock solutions used were verified by quantitative amino acid analysis of aliquots. Pr-P4 and Pr-P4--NH2 were dissolved in 40 mM phosphate buffer, pH 7.4, containing 20% v/v absolute ethanol (i.e. 8 Vol of the above 50 mM phosphate buffer +2 Vol. ethanol). […] Indomethacin was dissolved in ethanol, such that the final ethanol concentration in the organ bath was at or lower than 0.01% v/v; this concentration of ethanol alone had no effect on the bioassay systems.

[2] = target: T1, thrombin receptor (rat gastric longitudinal muscle strips) (Rattus norvegicus, UniProt P26824); test: Rat gastric longitudinal muscle (RLM) strip contractile assay; type: cell-based
T1 construct: Rat gastric LM strips (3×10 mm) were obtained; from tissue; host or cells: rat (Sprague Dawley) gastric longitudinal muscle strips
T1 sequence (P26824 22-432): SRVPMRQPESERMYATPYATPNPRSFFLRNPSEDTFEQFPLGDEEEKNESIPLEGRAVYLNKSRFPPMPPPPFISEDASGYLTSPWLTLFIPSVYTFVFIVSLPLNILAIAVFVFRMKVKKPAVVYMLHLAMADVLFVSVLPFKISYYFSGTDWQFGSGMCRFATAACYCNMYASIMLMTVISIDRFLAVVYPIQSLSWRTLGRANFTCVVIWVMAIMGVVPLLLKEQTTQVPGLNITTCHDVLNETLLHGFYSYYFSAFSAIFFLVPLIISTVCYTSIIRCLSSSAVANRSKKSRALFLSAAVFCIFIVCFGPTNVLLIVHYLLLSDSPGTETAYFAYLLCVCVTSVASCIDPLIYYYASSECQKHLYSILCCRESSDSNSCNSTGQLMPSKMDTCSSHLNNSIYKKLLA
Excerpt: We obtained an evaluation of the potencies of the various TRPs, relative to P5, by using the linear portions of the concentration-effect curves, so as to calculate for several response levels the average ratio of concentrations (REC) of an individual TRP, relative to concentration of P5 that caused the same contractile response (i.e. REC =ECTRP .div.ECPS). […] In the RA assay, a similar approach to the estimate of relative potencies (REC S) was used, even though all agonists, except for P5--OCH3, appeared to cause equivalent maximal relaxation (FIG. 2, lower).
(§1) The guinea pig gastric longitudinal muscle (GLM) strips and the rat thoracic aorta (RA) ring preparations were isolated as previously described 14, 15. In brief, gastric LM strips (3×10 mm), obtained from male albino Hartley strain guinea pigs were equilibrated for about 1.5 h at 37° (in an aerated (95% O2 /5% CO2) Krebs-Henseleit buffer (3 mL) of the following composition (in mM): NaCl, 118; KCl, 4.7; CaCl2, 2.5; MgCl2, 1.2; NaHCO3, 25; KH2 PO4, 1.2; and glucose, 10. The pH was maintained at 7.4. Rat gastric LM strips (3×10 mm) were obtained, as for the GLM strips, from male albino Sprague Dawley animals (250-300 g). The stomach, opened along the greater curvature, was stripped free of all mucosal tissue under microscopic visualization and longitudinal tissue strips were cut exactly at right angles to the visible circular muscle bundles. Tissue strips were pre-equilibrated in the buffer described above. Each tissue was challenged twice each in succession at timed intervals with 50 nM carbachol (20 min intervals), 1 μM angiotensin-II (1 h intervals) and 95 μM (60 μg/mL) receptor pentapeptide (P5, SFLLR, SEQ ID NO: 2) (25 min intervals for GLM; 30-35 min for RLM); tissues were washed at 10 and 15 min after the additions of agonists. Contractions were monitored isometrically using Statham force-displacement transducers. Only tissues responding well to all three agonists were used further for the evaluation of the biological activities of P5 and other peptide agonists. For the GLM and RLM assays, concentration-effect curves for all peptides were constructed by expressing the response of each agonist as a percentage (% P595) relative to the contraction caused by 95 μM (60 μg/mL) P5 (0.9±0.1 g tension: mean ±S.E.M. for n=12 in the GLM; 1.6±0.9 g tension: mean ±S.E.M. for n=36 in the RLM).
Weighed peptide samples were routinely dissolved in 50 mM phosphate buffer, pH 7.4, to yield stock solutions, from which volumes of up to 0.2 mL were added directly to the organ bath; the concentrations of all stock solutions used were verified by quantitative amino acid analysis of aliquots. Pr-P4 and Pr-P4--NH2 were dissolved in 40 mM phosphate buffer, pH 7.4, containing 20% v/v absolute ethanol (i.e. 8 Vol of the above 50 mM phosphate buffer +2 Vol. ethanol). Control aliquots of the ethanol-containing phosphate buffer alone had no effect on either of the bioassay systems. Acetylcholine, carbachol, indomethacin, noradrenaline and angiotensin-II and thrombin (human, 3000 to 4000 U/mg; 1 U/mL.perspectiveto.10 nM) were from Sigma (St. Louis, Mo.); genistein (GS) was from ICN Biochemicals, Costa Mesa, Calif. Tyrphostin (TP) (RG 50864, also designated AG213) was obtained through the courtesy of Dr. R. R. Swillo, Rhone-Poulenc Rorer (Collegeville, Pa). […] Indomethacin was dissolved in ethanol, such that the final ethanol concentration in the organ bath was at or lower than 0.01% v/v; this concentration of ethanol alone had no effect on the bioassay systems.

[3] = target: T2, thrombin receptor (guinea pig gastric longitudinal muscle strips) (Cavia porcellus, UniProt A0A286XH07); conditions: for Effect of inhibitor on contractile actions of P5--NH2 and Pr-P4: GLM
T2 sequence (A0A286XH07 24-426): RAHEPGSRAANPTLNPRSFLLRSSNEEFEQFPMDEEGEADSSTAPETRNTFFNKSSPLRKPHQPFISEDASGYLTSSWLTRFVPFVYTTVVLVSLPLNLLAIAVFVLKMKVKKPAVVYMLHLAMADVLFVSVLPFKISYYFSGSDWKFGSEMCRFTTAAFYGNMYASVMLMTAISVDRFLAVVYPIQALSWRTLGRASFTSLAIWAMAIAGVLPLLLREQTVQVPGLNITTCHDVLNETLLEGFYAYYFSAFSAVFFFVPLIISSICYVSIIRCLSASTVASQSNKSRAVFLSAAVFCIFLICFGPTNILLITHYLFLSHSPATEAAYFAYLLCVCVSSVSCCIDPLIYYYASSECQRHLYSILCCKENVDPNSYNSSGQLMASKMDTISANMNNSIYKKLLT
Protocol: as §1, with “agonists.” for “agonists. For the GLM and RLM assays, concentration-effect curves for all peptides were constructed by expressing the response of each agonist as a percentage (% P595) relative to the contraction caused by 95 μM (60 μg/mL) P5 (0.9±0.1 g tension: mean ±S.E.M. for n=12 in the GLM; 1.6±0.9 g tension: mean ±S.E.M. for n=36 in the RLM).”

[4] = average concentration ratio relative to P5 causing equal relaxation response (REC = EC TRP ÷ EC P5)
[5] = average concentration ratio relative to P5 causing equal contractile response (REC = EC TRP ÷ EC P5)

CCC(=O)N[C@@H](Cc1ccccc1)C(=O)N[C@@H](CC(C)C)C(=O)N[C@@H](CC(C)C)C(=O)N[C@@H](CCCNC(=N)N)C(N)=O [Pr-P4-NH2, N-propionyl-F43 -LLR46 -amide] (Propionyl-FLLR-NH2)
Relative potency (REC) RA [1, 4]: A.

COc1ccc2c(c1)c(CC(=O)O)c(C)n2C(=O)c1ccc(Cl)cc1 [indomethacin, reference compound]
Inhibition of the RLM response to P5-NH2 [2]: 40±6 % inhibition | Effect of inhibitor on contractile action of carbachol ([2]; RLM): unaffected | Effect of inhibitor on contractile actions of P5--NH2 and Pr-P4 [3]: blocked | Effect of inhibitor on RA relaxation responses to TRPs ([1]; RA, P5-NH2 and Pr-P4): not inhibited

CC(C)C[C@H](NC(=O)[C@H](CC(C)C)NC(=O)[C@H](Cc1ccccc1)NC(=O)[C@@H](N)CO)C(=O)N[C@@H](CCCCN)C(=O)O [PK5, S42 FLLK46] (H-SFLLK-OH)
Relative potency (REC) GLM [3]: 4.5 | Relative potency (REC) RA [1]: 1.3

CCC(=O)N[C@@H](Cc1ccccc1)C(=O)N[C@@H](CC(C)C)C(=O)N[C@@H](CC(C)C)C(=O)N[C@@H](CCCNC(=N)N)C(=O)O [Pr-P4, N-propionyl-F43 LLR46] (Propionyl-FLLR-OH)
Relative potency (REC) GLM [3]: 1 | Relative potency (REC) RA [1]: 0.1

CC(C)C[C@H](NC(=O)[C@H](Cc1ccccc1)NC(=O)[C@H](Cc1ccccc1)NC(=O)[C@@H](N)CO)C(=O)N[C@@H](CCCNC(=N)N)C(=O)O [Ra-P5, SFFLR] (H-SFFLR-OH)
Relative potency (REC) RLM [2]: 1.0 | Relative potency (REC) RA [1, 4]: 4.4

COc1cc2ncnc(Nc3cccc(Cl)c3)c2cc1OC [tyrphostin, Tyrphostin, reference compound]
Sensitivity of the RLM response to P5-NH2 to the inhibitor [2]: quite sensitive | Effect of inhibitor on contractile actions of P5--NH2 and Pr-P4 [3]: blocked

O=c1c(-c2ccc(O)cc2)coc2cc(O)cc(O)c12 [genistein, reference compound]
Effect of inhibitor on contractile action of carbachol ([2]; RLM): unaffected | Inhibition of the RLM response to P5-NH2 ([2]; mean ±S.E.M. for n=6): 77±3 % inhibition | Effect of inhibitor on contractile actions of P5--NH2 and Pr-P4 [3]: similarly effective

CC(C)C[C@H](NC(=O)[C@H](Cc1ccccc1)NC(=O)[C@H](Cc1ccccc1)NC(=O)[C@@H](N)CO)C(=O)N[C@@H](CCCNC(=N)N)C(=O)N[C@@H](CC(N)=O)C(=O)N1CCC[C@H]1C(=O)O [Ra-P7, SFFLRNP] (H-SFFLRNP-OH)
Relative potency (REC) RLM [2]: 0.3 | Relative potency (REC) RA [1, 4]: 0.6

CC(C)C[C@H](NC(=O)[C@H](CC(C)C)NC(=O)[C@H](Cc1ccccc1)NC(=O)[C@@H](N)CO)C(=O)N[C@@H](CCCNC(=N)N)C(=O)N[C@@H](CC(N)=O)C(=O)N1CCC[C@H]1C(N)=O [P7-NH2, S42 FLLRNP48 -amide] (H-SFLLRNP-NH2)
Relative potency (REC) GLM [3, 5]: 0.04 | Agonist (relaxation) activity ([1]; RA): active | Relative potency (REC) RA [1, 4]: 0.08

CC(C)C[C@H](NC(=O)[C@H](CC(C)C)NC(=O)[C@H](Cc1ccccc1)NC(=O)[C@@H](N)CO)C(=O)N[C@@H](CCCN=C(N)N)C(=O)N[C@@H](CC(N)=O)C(=O)N1CCC[C@H]1C(=O)O [P7, S42 FLLRNP48] (H-SFLLRNP-OH)
Relative potency (REC) RLM [2]: 0.3

CC(C)C[C@H](NC(=O)[C@H](CC(C)C)NC(=O)[C@H](Cc1ccccc1)NC(=O)[C@H](C)N)C(=O)N[C@@H](CCCNC(=N)N)C(=O)O [AP5, A42 FLLR46] (H-AFLLR-OH)
Relative potency (REC) GLM [3]: 1.8 | Relative potency (REC) RA [1]: 1.7

CC(C)C[C@H](NC(=O)[C@H](CC(C)C)NC(=O)[C@H](Cc1ccccc1)NC(=O)[C@@H](N)CO)C(=O)N[C@@H](CCCNC(=N)N)C(=O)N[C@@H](CC(N)=O)C(=O)N1CCC[C@H]1C(=O)O [P7, S42 FLLRNP48] (H-SFLLRNP-OH)
Relative potency (REC) GLM [3, 5]: 0.4 | Relative potency (REC) RA [1, 4]: 1.1

CC(C)C[C@H](NC(=O)[C@H](CC(C)C)NC(=O)[C@H](Cc1ccccc1)NC(=O)[C@@H](N)CO)C(=O)N[C@@H](CCCN=C(N)N)C(=O)N[C@@H](CC(N)=O)C(=O)N1CCC[C@H]1C(N)=O [P7-NH2, S42 FLLRNP48 -amide] (H-SFLLRNP-NH2)
Relative potency (REC) RLM [2]: 0.1

CC(C)C[C@H](NC(=O)[C@H](Cc1ccccc1)NC(=O)[C@H](Cc1ccccc1)NC(=O)[C@@H](N)CO)C(=O)N[C@@H](CCCNC(=N)N)C(N)=O [Ra-P5-NH2, SFFLR-amide] (H-SFFLR-NH2)
Relative potency (REC) RLM [2]: 0.07 | Agonist (contractile) activity ([2]; RLM): most potent of all of the peptides we examined | Agonist (relaxation) activity ([1]; RA): considerably less potent than the comparable human receptor sequences | Relative potency (REC) RA [1, 4]: 0.2

COC(=O)[C@H](CCCNC(=N)N)NC(=O)[C@H](CC(C)C)NC(=O)[C@H](CC(C)C)NC(=O)[C@H](Cc1ccccc1)NC(=O)[C@@H](N)CO [P5-OCH-3, S42 FLLR46 -O-Methyl]
Relative potency (REC) GLM [3]: 0.1 | Relative potency (REC) RA [1]: 0.1 | Agonist (relaxation) activity ([1]; RA): partial agonist
